Patent US20100056552A1, “COMBINATION FOR USE IN THE TREATMENT OF INFLAMMATORY DISORDERS” (priority 2007, published 2010)

Tests used:
MonoMac-6 (MM6) cells = test: PMA-induced TNF release from MonoMac-6 macrophages (Human TNF ELISA); type: cell-based; settings: n=2; for mean TNF concentration after PMA stimulation: 48 h treatment, then PMA 10 ng/mL 5 h, untreated cells 41.1 pg/mL
Procedure: (§1) Cells from the human macrophage cell-line MonoMac-6 (MM6) (Ziegler-Heitbrock et al, Int. J. Cancer, 41, 456 (1988)) were cultured (37° C./5% CO2) in RPMI-1640 medium supplemented with 1 mM sodium pyruvate, × nonessential amino acids, 10 μg/mL insulin, 1 mM oxalacetic acid, 100 units/mL penicillin, 100 μg/mL streptomycin and 5% (v/v) fetal bovine serum. At the start of the experiment, MM6 cells were seeded in 96-well plates at a density of 1×10^5 cells/mL (100 μL per well in cell the viability experiments, and 150 μL per well in the TNF release experiments—see below).
(§2) The MM6 cells were treated (incubation conditions as above) with indicated final concentrations of the test drugs for 48 hours prior to quantification of cell viability/growth or stimulation with phorbol-12-myristate-13-acetate (PMA; Sigma Aldrich, Stockholm, Sweden) followed by measurement of PMA-induced TNF-release (see below for details).
To stimulate formation and release of tumor necrosis factor (TNF), the MM6 cells were incubated (37° C./5% CO2) for five hours (in RPMI-1640 with 5% fetal bovine serum with supplements as above) with PMA at a final concentration of 10 ng/mL.
After spinning down the cells after the different MM6 incubations/stimulations (see above and below), the concentrations of TNF in the supernatants were quantitated using Human TNF ELISA Kit II from BD Biosciences—Pharmingen (San Diego, USA) according to instructions supplied by the manufacturer.
(§3) Stock solutions of suplatast (tosylate salt purchased from American Custom Chemicals Corporation, San Diego, USA) and rosuvastatin (sodium salt; rosuvastatin was extracted and purified from commercially available Crestor® tablets and isolated as sodium salt as described in Bioorganic & Medicinal Chemistry, Vol. 5, No. 5, pp 437-444, 1997) were made in sterile saline.

[1] = MM6 cell growth/viability (WST-1 reagent); type: cell-based; settings: human, MonoMac-6 (MM6) macrophage cell line, n=3, read-out: viability of MM6 cells compared to untreated MM6 cells; for viability at 48 h, 10 μM: drug alone 10 μM
Procedure: as §1, §2
MM6 cell growth/viability was measured using the Cell Proliferation Reagent WST-1 (Roche Diagnostics Scandinavia AB, Bromma, Sweden). The WST-1 reagent is designed to be used for spectrophotometric quantification of e.g. cell growth and viability and. was used according to the manufacturers' instructions.
as §3

In the case of `CCOCC(O)COc1ccc(NC(=O)CC[S+](C)C)cc1` (stereo not drawn) [suplatast], the “mean TNF concentration after PMA stimulation” value (MonoMac-6 (MM6) cells; drug alone 1 μM) is reported as 39.6 pg/mL, the “decrease in mean TNF concentration compared to the untreated cells” value (MonoMac-6 (MM6) cells; drug alone 1 μM) is reported as 3.8% and the “mean TNF concentration after PMA stimulation” value (MonoMac-6 (MM6) cells; drug alone 10 μM) is reported as 34.8 pg/mL. The “decrease in mean TNF concentration compared to the untreated cells” value (MonoMac-6 (MM6) cells; drug alone 10 μM) was 15.4%, the viability at 48 h, 1 μM ([1]; drug alone 1 μM) was 94% and the viability at 48 h, 10 μM [1] was 92%.

In the case of `CC(C)c1nc(N(C)S(C)(=O)=O)nc(-c2ccc(F)cc2)c1/C=C/[C@@H](O)C[C@@H](O)CC(=O)O` [rosuvastatin], the “mean TNF concentration after PMA stimulation” value (MonoMac-6 (MM6) cells; drug alone 10 μM) is reported as 76.7 pg/mL, the “mean TNF concentration after PMA stimulation” value (MonoMac-6 (MM6) cells; drug alone 30 μM) is reported as 84.0 pg/mL and the viability at 48 h, 10 μM [1] is reported as 105%. It also gave a viability at 48 h, 30 μM ([1]; drug alone 30 μM) of 102%.

With `CC(C)c1c(C(=O)Nc2ccccc2)c(-c2ccccc2)c(-c2ccc(F)cc2)n1CC[C@@H](O)C[C@@H](O)CC(=O)O` [atorvastatin] the “mean TNF concentration after PMA stimulation” value (MonoMac-6 (MM6) cells; drug alone 10 μM) was 133.6 pg/mL and the “mean TNF concentration after PMA stimulation” value (MonoMac-6 (MM6) cells; drug alone 30 μM) was 59.7 pg/mL.
